From PMC9516332 (Frontiers in Oncology, 2022) come the findings set out here.

Holding throughout (assay): Kinase panel profiling at 1 µmol/L (MSA or IMAP), percentage inhibition
Common to all, as to format: biochemical

For assay [1], the target named is T1, panel of 255 wild-type kinases (Homo sapiens, UniProt P54760).
T1 sequence (P54760 16-987): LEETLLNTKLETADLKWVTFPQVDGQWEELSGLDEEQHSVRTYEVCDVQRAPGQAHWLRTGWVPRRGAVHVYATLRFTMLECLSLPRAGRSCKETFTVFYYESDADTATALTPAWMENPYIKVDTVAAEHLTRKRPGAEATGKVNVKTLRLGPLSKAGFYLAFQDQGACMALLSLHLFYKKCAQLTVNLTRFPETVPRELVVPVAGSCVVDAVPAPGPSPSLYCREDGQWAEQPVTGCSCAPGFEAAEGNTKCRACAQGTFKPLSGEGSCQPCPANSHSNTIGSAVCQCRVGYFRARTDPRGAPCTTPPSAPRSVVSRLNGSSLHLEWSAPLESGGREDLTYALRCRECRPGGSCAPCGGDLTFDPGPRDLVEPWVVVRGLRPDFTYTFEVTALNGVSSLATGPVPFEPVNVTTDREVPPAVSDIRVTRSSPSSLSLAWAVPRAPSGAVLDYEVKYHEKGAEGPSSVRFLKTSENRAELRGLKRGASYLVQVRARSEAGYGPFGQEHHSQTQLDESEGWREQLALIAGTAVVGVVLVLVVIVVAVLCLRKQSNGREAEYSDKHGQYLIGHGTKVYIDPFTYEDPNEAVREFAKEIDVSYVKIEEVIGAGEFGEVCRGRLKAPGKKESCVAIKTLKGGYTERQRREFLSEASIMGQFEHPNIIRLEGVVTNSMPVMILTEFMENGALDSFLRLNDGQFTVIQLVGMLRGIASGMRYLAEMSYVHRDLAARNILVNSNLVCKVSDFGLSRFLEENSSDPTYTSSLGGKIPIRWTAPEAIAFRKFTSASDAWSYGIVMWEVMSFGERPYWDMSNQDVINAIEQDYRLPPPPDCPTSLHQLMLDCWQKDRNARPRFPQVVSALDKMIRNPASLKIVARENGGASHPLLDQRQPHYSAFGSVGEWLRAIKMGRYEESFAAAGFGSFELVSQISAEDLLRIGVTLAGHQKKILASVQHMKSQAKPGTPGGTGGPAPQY
Conditions: kinase EPHB4; 1 µmol/L single concentration; read-out: %-inhibition at 1 µmol/L, EPHB4.

For assay [2], the target named is panel of 255 wild-type kinases (Homo sapiens, UniProt P29597). The following applies: kinase TYK2; 1 µmol/L single concentration; read-out: %-inhibition at 1 µmol/L, TYK2.
For assay [3], the target named is panel of 255 wild-type kinases (Homo sapiens, UniProt P22694). The following applies: kinase PKACβ; 1 µmol/L single concentration; read-out: %-inhibition at 1 µmol/L, PKACβ.
Assay [4] addresses panel of 255 wild-type kinases (Homo sapiens, UniProt Q02763). The following applies: kinase TIE2; 1 µmol/L single concentration; read-out: %-inhibition at 1 µmol/L, TIE2.
The target in assay [5] is panel of 255 wild-type kinases (Homo sapiens, UniProt Q16816). Conditions: kinase PHKG1; 1 µmol/L single concentration; read-out: %-inhibition at 1 µmol/L, PHKG1.
Assay [6] concerns the target panel of 255 wild-type kinases (Homo sapiens, UniProt P11362). Conditions: kinase FGFR1; 1 µmol/L single concentration; read-out: %-inhibition at 1 µmol/L, FGFR1.
For assay [7], the target named is T2, panel of 255 wild-type kinases (Homo sapiens, UniProt Q9NRA0).
T2 sequence (Q9NRA0 1-654): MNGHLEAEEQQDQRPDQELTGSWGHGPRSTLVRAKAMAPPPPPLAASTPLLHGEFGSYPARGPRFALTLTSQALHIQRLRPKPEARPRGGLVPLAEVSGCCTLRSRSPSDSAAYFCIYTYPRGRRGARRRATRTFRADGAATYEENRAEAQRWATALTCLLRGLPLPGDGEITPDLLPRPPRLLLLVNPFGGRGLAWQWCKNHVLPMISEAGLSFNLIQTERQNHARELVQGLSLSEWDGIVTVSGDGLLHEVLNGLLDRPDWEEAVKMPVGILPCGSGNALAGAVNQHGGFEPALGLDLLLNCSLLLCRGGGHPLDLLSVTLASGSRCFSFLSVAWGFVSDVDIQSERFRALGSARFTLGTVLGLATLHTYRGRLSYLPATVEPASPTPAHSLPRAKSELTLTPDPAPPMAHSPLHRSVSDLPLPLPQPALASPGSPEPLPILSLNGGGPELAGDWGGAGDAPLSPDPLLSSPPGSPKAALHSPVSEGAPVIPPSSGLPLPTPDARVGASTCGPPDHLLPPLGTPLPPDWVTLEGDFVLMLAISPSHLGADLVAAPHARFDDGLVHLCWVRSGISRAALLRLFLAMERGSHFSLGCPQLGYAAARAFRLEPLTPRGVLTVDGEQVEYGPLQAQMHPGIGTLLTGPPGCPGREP
The following applies: kinase SPHK2; 1 µmol/L single concentration; read-out: %-inhibition at 1 µmol/L, SPHK2.

For assay [8], the target named is panel of 255 wild-type kinases (Homo sapiens, UniProt P04626). The following applies: kinase HER2; 1 µmol/L single concentration; read-out: %-inhibition at 1 µmol/L, HER2.
Assay [9] deals with T3, panel of 255 wild-type kinases (Homo sapiens, UniProt Q8IW41).
T3 sequence (Q8IW41 1-473): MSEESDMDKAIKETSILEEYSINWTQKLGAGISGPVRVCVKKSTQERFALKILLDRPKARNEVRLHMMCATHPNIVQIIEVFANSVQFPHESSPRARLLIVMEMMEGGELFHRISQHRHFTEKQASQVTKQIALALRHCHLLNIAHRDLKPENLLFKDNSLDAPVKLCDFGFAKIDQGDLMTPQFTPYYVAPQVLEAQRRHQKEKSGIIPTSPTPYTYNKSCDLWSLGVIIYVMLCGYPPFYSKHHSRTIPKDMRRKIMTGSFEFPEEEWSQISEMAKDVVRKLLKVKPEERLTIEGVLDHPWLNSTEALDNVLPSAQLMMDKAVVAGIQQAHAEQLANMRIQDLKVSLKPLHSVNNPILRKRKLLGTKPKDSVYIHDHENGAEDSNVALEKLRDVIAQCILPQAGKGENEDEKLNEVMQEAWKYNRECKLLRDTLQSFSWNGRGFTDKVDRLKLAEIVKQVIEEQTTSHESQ
Conditions: MAPKAPK5; 1 µmol/L single concentration; read-out: %-inhibition, MAPKAPK5.

For `CCN1CCN(c2ccc(Nc3cc(N(C)C(=O)Nc4c(Cl)c(OC)cc(OC)c4Cl)ncn3)cc2)CC1` [infigratinib], the inhibition at 1 µM was -0.369% in assay [1]; -3% in [2]; -17% in assay [3]; 63% in [4]; 0.355% in [5]; 100% in assay [6]. The inhibition at 1 µM in assay [7] was 2%; in assay [8] it was 4.73%; in assay [9], -6%.

For the molecule `O=C(Nc1cnn2ccc(N3CCC[C@@H]3c3cc(F)ccc3F)nc12)N1CC[C@H](O)C1` [larotrectinib], the inhibition at 1 µM was -2.17% in [1]; -0.368% in [2]; -14% in assay [3]; 1.84% in [4]; 1.81% in assay [5]; -2% in assay [6]. Moreover, the results for the inhibition at 1 µM in assay [7], in assay [8] and in assay [9] were -1.56%, -2.32% and -3%, respectively.

Turning to `C[C@H]1Oc2cc(cnc2N)-c2c(nn(C)c2C#N)CN(C)C(=O)c2ccc(F)cc21` [lorlatinib], the inhibition at 1 µM in assay [1] is 43%; in assay [2] it was 5%; in [3], -18%; in assay [4] it was 17%; in [5] it was 65%; in [6], 3.43%. Moreover, the inhibition at 1 µM in assay [7] is 10%; in assay [8] it was 21%; in assay [9] it was 2.32%.

On to `FC(F)(F)c1ccc(CNc2ccc(Cc3c[nH]c4ncc(Cl)cc34)cn2)cn1` [pexidartinib], for which the inhibition at 1 µM in [1] was -2%; in assay [2], 19%; in [3], 4%; in assay [4], 14%; in assay [5], 21%; in assay [6] it was 45%. For the same molecule, the inhibition at 1 µM in assay [7] came to 7%; in [8], 6%; in assay [9] it was 0.469%.

As for `CO[C@]1(C(=O)N[C@@H](C)c2ccc(-n3cc(F)cn3)nc2)CC[C@H](c2nc(C)cc(Nc3cc(C)[nH]n3)n2)CC1` [pralsetinib], the inhibition at 1 µM worked out at 56% in [1]; 91% in assay [2]; 20% in [3]; 5.49% in [4]; 1.67% in [5]; 96% in assay [6]. Moreover, the results for the inhibition at 1 µM in assay [7], in assay [8] and in assay [9] were -2.48%, 20% and -3.49%, respectively.

As for `CCn1c(=O)c(-c2cc(NC(=O)Nc3ccccc3)c(F)cc2Br)cc2cnc(NC)cc21` [ripretinib], the inhibition at 1 µM in assay [1] was 90%; in [2], 4.46%; in assay [3], -3.65%; in [4], 79%; in [5] it was 1.76%; in [6] it was 92%. Moreover, the figures for the inhibition at 1 µM in assay [7], in [8] and in [9] were -10%, 5.51% and -3.71%, respectively.

`COc1ccc(CN2C3CC2CN(c2ccc(-c4cc(OCC(C)(C)O)cn5ncc(C#N)c45)cn2)C3)cn1` [selpercatinib]: the inhibition at 1 µM in assay [1] was 73%; in assay [2], 3.39%; in [3], -4.64%; in assay [4], 43%; in assay [5], 8%; in assay [6], 97%. Besides, the inhibition at 1 µM is -3.75% in assay [7], 2.47% in [8] and -1.78% in assay [9].

Consider `Cn1cnc2c(F)c(Nc3ccc(Br)cc3Cl)c(C(=O)NOCCO)cc21` [selumetinib], for which the inhibition at 1 µM in [1] was 0.674%; in assay [2] it was -3%; in [3] it was -21%; in assay [4], -9%; in assay [5], -0.945%; in assay [6] it was -1.41%. Also, the inhibition at 1 µM was -4% in [7], 3% in [8] and -3.2% in assay [9].

With `Cc1cc(Nc2ncnc3ccc(NC4=NC(C)(C)CO4)cc23)ccc1Oc1ccn2ncnc2c1` [tucatinib], the inhibition at 1 µM in assay [1] is -0.489%; in [2], 4.71%; in assay [3] it was -15%; in [4], -2.82%; in assay [5], -3.62%; in [6], -3.24%. Further, the inhibition at 1 µM in [7] came to 0.368%; in [8] it was 101%; in [9], 2%.

With `C=CC(=O)N1CCC([C@@H]2CCNc3c(C(N)=O)c(-c4ccc(Oc5ccccc5)cc4)nn32)CC1` [zanubrutinib], the inhibition at 1 µM in assay [1] was -2.82%; in assay [2], -2.32%; in assay [3] it was -8%; in [4] it was 2%; in assay [5] it was 2.38%; in assay [6], 4.53%. Further, the inhibition at 1 µM in [7] was -6.64%; in assay [8] it was 69%; in assay [9], -3.6%.
